Experimental data: patent US20240228488A1 (TAKEDA PHARMACEUTICAL COMPANY LIMITED, priority 2021, published 2024)

Molecular target: human activated kallikrein enzyme (Homo sapiens, UniProt P03952)
Experiment: Plasma kallikrein inhibition, fluorogenic PFR-AMC substrate, 500 pM activated kallikrein format
Assay type: biochemical
Conditions: 500 pM activated kallikrein, 300 uM PFR-AMC, 30 min preincubation, 10 min reaction; read-out: Primary Dose Response Assay: Average EC50
Procedure, shortened: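 Fluorogenic readout (ex 380 / em 460 nm) after 10 min room-temperature reaction with 300 uM Pro-Phe-Arg-AMC substrate, following 30 min preincubation of inhibitors with 500 pM enzyme. Buffer: Tris pH 7.5, EDTA, NaCl, PEG-400, Triton X-100. Values given as EC50 ranges.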

Sequence of human activated kallikrein enzyme (P03952 391-638 limits assumed): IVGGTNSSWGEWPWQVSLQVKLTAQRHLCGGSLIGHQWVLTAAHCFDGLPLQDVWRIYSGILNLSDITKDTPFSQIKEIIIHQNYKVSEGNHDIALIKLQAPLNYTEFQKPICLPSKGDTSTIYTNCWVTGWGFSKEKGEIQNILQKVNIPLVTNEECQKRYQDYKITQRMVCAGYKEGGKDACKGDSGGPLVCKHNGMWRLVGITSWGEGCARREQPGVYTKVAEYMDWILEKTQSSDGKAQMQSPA
Sequence of human activated kallikrein enzyme (P03952 20-390 partner limits assumed): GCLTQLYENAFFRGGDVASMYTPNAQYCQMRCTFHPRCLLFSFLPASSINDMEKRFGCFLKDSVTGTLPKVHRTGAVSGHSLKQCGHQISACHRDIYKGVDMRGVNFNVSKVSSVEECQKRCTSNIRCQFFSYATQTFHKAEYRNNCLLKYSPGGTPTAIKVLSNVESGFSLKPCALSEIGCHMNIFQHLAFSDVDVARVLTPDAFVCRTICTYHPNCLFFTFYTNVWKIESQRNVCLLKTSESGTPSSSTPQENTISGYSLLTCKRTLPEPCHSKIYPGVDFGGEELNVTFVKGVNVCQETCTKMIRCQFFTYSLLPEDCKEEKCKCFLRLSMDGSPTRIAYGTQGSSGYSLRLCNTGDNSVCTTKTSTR

Row | Structure (SMILES) | EC50 [nM]
1 | C[C@H]1[C@H](C(=O)Nc2cc(NCc3cn4cc(C5CC5)ccc4n3)ncn2)[C@H]1c1cccc(Cl)c1 (single isomer, unassigned) [Example 507, (1R*,2R*,3S*)-2-(3-chlorophenyl)-N-(6-(((6-cyclopropylimidazo[1,2-a]pyridin-2-yl)methyl)amino)pyrimidin-4-yl)-3-methylcyclopropane-1-carboxamide] | > 6000
2 | C[C@H]1[C@H](C(=O)Nc2cc(NCc3cn4cc(C5CC5)ccc4n3)ncn2)[C@H]1c1cccc(Cl)c1 (single isomer, unassigned) [Example 508, (1R*,2R*,3S*)-2-(3-chlorophenyl)-N-(6-(((6-cyclopropylimidazo[1,2-a]pyridin-2-yl)methyl)amino)pyrimidin-4-yl)-3-methylcyclopropane-1-carboxamide] | > 6000
3 | CC(NC(=O)[C@H]1C[C@@H]1c1cccc(Cl)c1)c1cn(Cc2cn3cc(C4CC4)ccc3n2)nn1 (single isomer, unassigned) [Example 589, rac-(1S*,2S*)-2-(3-chlorophenyl)-N-(1-(1-((6-cyclopropylimidazo[1,2-a]pyridin-2-yl)methyl)-1H-1,2,3-triazol-4-yl)ethyl)cyclopropane-1-carboxamide] | 10 to 100
4 | CC(NC(=O)[C@H]1C[C@@H]1c1cccc(Cl)c1)c1cn(Cc2cn3cc(C4CC4)ccc3n2)nn1 (single isomer, unassigned) [Example 590, rac-(1S*,2S*)-2-(3-chlorophenyl)-N-(1-(1-((6-cyclopropylimidazo[1,2-a]pyridin-2-yl)methyl)-1H-1,2,3-triazol-4-yl)ethyl)cyclopropane-1-carboxamide] | 10 to 100
5 | CN(C)C1CCN(c2cc(C3CC3)cn3cc(CNc4cc(NC(=O)[C@H]5C[C@@H]5c5cccc(Cl)c5)ncn4)nc23)C1 (single isomer, unassigned) [Example I-14] | 1 to 10
6 | CN(C)C1CCN(c2cc(C3CC3)cn3cc(CNc4cc(NC(=O)[C@H]5C[C@@H]5c5cccc(Cl)c5)ncn4)nc23)C1 (single isomer, unassigned) [Example I-15] | 1 to 10
7 | Nc1cc(Cl)cc([C@H]2C[C@@H]2C(=O)Nc2cc(NCc3cn4cc(C5CC5)ccc4n3)ncn2)c1 (single isomer, unassigned) [Example I-257, rac-(1S*,2S*)-2-(3-amino-5-chlorophenyl)-N-(6-(((6-cyclopropylimidazo[1,2-a]pyridin-2-yl)methyl)amino)pyrimidin-4-yl)cyclopropane-1-carboxamide] | 1 to 10
8 | Nc1cc(Cl)cc([C@H]2C[C@@H]2C(=O)Nc2cc(NCc3cn4cc(C5CC5)ccc4n3)ncn2)c1 (single isomer, unassigned) [Example I-258, rac-(1S*,2S*)-2-(3-amino-5-chlorophenyl)-N-(6-(((6-cyclopropylimidazo[1,2-a]pyridin-2-yl)methyl)amino)pyrimidin-4-yl)cyclopropane-1-carboxamide] | 1000 to 6000
9 | Cc1ccnc([C@@H]2C[C@H]2C(=O)Nc2cc(NCc3cn4cc(C5CC5)cc(N5CC(=O)N(C)C5=O)c4n3)ncn2)n1 (single isomer, unassigned) [Example I-261] | 10 to 100
10 | CN1C(=O)CN(c2cc(C3CC3)cn3cc(CNc4cc(NC(=O)[C@@H]5C[C@H]5c5cc(Cl)ccn5)ncn4)nc23)C1=O (single isomer, unassigned) [Example I-263] | 10 to 100
11 | O=C(Nc1cc(NCc2cn3cc(C4CC4)ccc3n2)ncn1)[C@H]1C[C@@H]1c1cc(Cl)ccn1 (single isomer, unassigned) [Example I-266, rac-(1S*,2S*)-2-(4-chloropyridin-2-yl)-N-(6-(((6-cyclopropylimidazo[1,2-a]pyridin-2-yl)methyl)amino)pyrimidin-4-yl)cyclopropane-1-carboxamide] | 100 to 1000
12 | O=C(Nc1cc(NCc2cn3cc(C4CC4)ccc3n2)ccn1)[C@H]1C[C@@H]1c1cc(Cl)ccn1 (single isomer, unassigned) [Example I-269, rac-(1S*,2S*)-2-(4-chloropyridin-2-yl)-N-(4-(((6-cyclopropylimidazo[1,2-a]pyridin-2-yl)methyl)amino)pyridin-2-yl)cyclopropane-1-carboxamide] | 10 to 100
13 | O=C(Nc1cc(NCc2cn3cc(C4CC4)ccc3n2)ccn1)[C@@H]1C[C@]12CCc1ccc(Cl)cc12 (single isomer, unassigned) [Example I-273, rac-(1S*,2S*)-6′-chloro-N-(4-(((6-cyclopropylimidazo[1,2-a]pyridin-2-yl)methyl)amino)pyridin-2-yl)-2′,3′-dihydrospiro[cyclopropane-1,1′-indene]-2-carboxamide] | < 1
14 | Cc1ccnc([C@H]2C[C@@H]2C(=O)Nc2ncnc3nn(Cc4cn5cc(C6CC6)cc(N6CC(=O)N(C)C6=O)c5n4)cc23)n1 (single isomer, unassigned) [Example I-633, rac-(1S*,2S*)—N-(2-((6-cyclopropyl-8-(3-methyl-2,4-dioxoimidazolidin-1-yl)imidazo[1,2-a]pyridin-2-yl)methyl)-2H-pyrazolo[3,4-d]pyrimidin-4-yl)-2-(4-methylpyrimidin-2-yl)cyclopropane-1-carboxamide] | 100 to 1000
15 | Cc1ccnc([C@H]2C[C@@H]2C(=O)Nc2ncnc3nn(Cc4cn5cc(C6CC6)cc(N6CC(=O)N(C)C6=O)c5n4)cc23)n1 (single isomer, unassigned) [Example I-634, rac-(1S*,2S*)—N-(2-((6-cyclopropyl-8-(3-methyl-2,4-dioxoimidazolidin-1-yl)imidazo[1,2-a]pyridin-2-yl)methyl)-2H-pyrazolo[3,4-d]pyrimidin-4-yl)-2-(4-methylpyrimidin-2-yl)cyclopropane-1-carboxamide] | < 1
16 | O=C(Nc1cc(N2C[C@@H](O)C[C@@H]2c2cn3cc(C4CC4)ccc3n2)ncn1)[C@H]1C[C@@H]1c1cc(Cl)ccn1 (single isomer, unassigned; isomer 1) [Example I-248, (1S*,2S*)-2-(4-chloropyridin-2-yl)-N-(6-((2R,4S)-2-(6-cyclopropylimidazo[1,2-a]pyridin-2-yl)-4-hydroxypyrrolidin-1-yl)pyrimidin-4-yl)cyclopropane-1-carboxamide, isomer 1] | 1000 to 6000
17 | O=C(Nc1cc(NCc2cn3cc(C4CC4)cc(N4CCC(O)CC4)c3n2)ncn1)[C@H]1C[C@@H]1c1cccc(Cl)c1 (stereo in doubt) [Example I-3, (1S,2S)-2-(3-chlorophenyl)-N-(6-(((6-cyclopropyl-8-(4-hydroxypiperidin-1-yl)imidazo[1,2-a]pyridin-2-yl)methyl)amino)pyrimidin-4-yl)cyclopropane-1-carboxamide] | 1 to 10
18 | Cc1ccnc([C@H]2C[C@@H]2C(=O)Nc2cc(OC(C)c3cn4cc(C5CC5)cc(N5CC(=O)N(C)C5=O)c4n3)c(C)nn2)n1 (stereo partly drawn) [Example 35, (1S,2S)-N-(5-(1-(6-cyclopropyl-8-(3-methyl-2,4-dioxoimidazolidin-1-yl)imidazo[1,2-α]pyridin-2-yl)ethoxy)-6-methylpyridazin-3-yl)-2-(4-methylpyrimidin-2-yl)cyclopropane-1-carboxamide] | < 1
19 | Cc1cc(N2CC(=O)N(C)C2=O)c2nc(C(C)Oc3cnnc(NC(=O)[C@H]4C[C@@H]4c4nccc(C)n4)c3)cn2c1 (stereo partly drawn) [Example 36, (1S,2S)-N-(5-(1-(6-methyl-8-(3-methyl-2,4-dioxoimidazolidin-1-yl)imidazo[1,2-α]pyridin-2-yl)ethoxy)pyridazin-3-yl)-2-(4-methylpyrimidin-2-yl)cyclopropane-1-carboxamide] | < 1
20 | Cc1ccnc([C@H]2C[C@@H]2C(=O)Nc2cc(OC(C)c3cn4cc(C5CC5)cc(N5CCOC5=O)c4n3)cnn2)n1 (stereo partly drawn) [Example 37, (1S,2S)-N-(5-(1-(6-cyclopropyl-8-(2-oxooxazolidin-3-yl)imidazo[1,2-α]pyridin-2-yl)ethoxy)pyridazin-3-yl)-2-(4-methylpyrimidin-2-yl)cyclopropane-1-carboxamide] | < 1
21 | COc1cc(NC(=O)[C@H]2C[C@@H]2c2nccc(C)n2)nc(OCc2cn3cc(C4CC4)cc(N4CC(=O)N(C)C4=O)c3n2)c1 [Example 38, (1S,2S)-N-(6-((6-cyclopropyl-8-(3-methyl-2,4-dioxoimidazolidin-1-yl)imidazo[1,2-α]pyridin-2-yl)methoxy)-4-methoxypyridin-2-yl)-2-(4-methylpyrimidin-2-yl)cyclopropane-1-carboxamide] | 1 to 10
22 | Cc1ccnc([C@H]2C[C@@H]2C(=O)Nc2cc(OC(C)c3cn4cc(C5CC5)cc(N5CC(=O)NC5=O)c4n3)cnn2)n1 (stereo partly drawn) [Example 39, (1S,2S)—N-(5-(1-(6-cyclopropyl-8-(2,4-dioxoimidazolidin-1-yl)imidazo[1,2-a]pyridin-2-yl)ethoxy)pyridazin-3-yl)-2-(4-methylpyrimidin-2-yl)cyclopropane-1-carboxamide] | 1 to 10
23 | O=C(Nc1cc(N(CCO)Cc2cn3cc(C4CC4)ccc3n2)ncn1)[C@H]1C[C@@H]1c1cccc(Cl)c1 [Example 77, (1S,2S)-2-(3-chlorophenyl)-N-(6-(((6-cyclopropylimidazo[1,2-a]pyridin-2-yl)methyl)(2-hydroxyethyl)amino)pyrimidin-4-yl)cyclopropane-1-carboxamide] | 10 to 100
24 | O=C(Nc1cc(NCc2cn3cc(C4CC4)cc(N4CCCS4(=O)=O)c3n2)ccn1)[C@H]1C[C@@H]1c1cccc(Cl)c1 [Example 121] | < 1
25 | O=C(Nc1cc(NCc2cn3cc(C4CC4)cc(N4CC(F)(F)C4)c3n2)ccn1)[C@H]1C[C@@H]1c1cccc(Cl)c1 [Example 124, (1S,2S)-2-(3-chlorophenyl)-N-(4-(((6-cyclopropyl-8-(3,3-difluoroazetidin-1-yl)imidazo[1,2-a]pyridin-2-yl)methyl)amino)pyridin-2-yl)cyclopropane-1-carboxamide] | 1 to 10
26 | O=C(Nc1cc(NC(c2cn3cc(C4CC4)ccc3n2)C(F)(F)F)ccn1)[C@H]1C[C@@H]1c1cccc(Cl)c1 (some centres unmarked) [Example 141] | 100 to 1000
